Tests used:
ATF3 = molecular target: T1, ATF3 (Homo sapiens, UniProt P18847); test: CD thermal denaturation of peptide mixed 1:1 with ATF3; assay type: binding; details: peptide incubated with ATF3; CD signal at 222 nm, 1 °C increments; 150 μM total peptide; 10 mM potassium phosphate, 100 mM potassium fluoride, pH 7.0; two-state denaturation model
T1 construct: We focus on the selective targeting of the ATF3 leucine zipper dimerization domain using intracellular peptide library screening; made in house; host or cells: chemical solid-phase peptide synthesis (no expression host)
T1 sequence (P18847 110-143): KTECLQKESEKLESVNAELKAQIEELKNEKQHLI
From the text: Following the observed significant increase in global secondary structure content for the ATF3-ATF3W_aeg complex relative to component peptides (Figure 6), we next analyzed the stability of the complex by undertaking thermal denaturation experiments (Figure 7). […] Moreover, consistent with spectral data, the clear increase from the average profile of the component peptides relative to that of the measured is most pronounced in the combined construct (Figure 7, red hash vs black). This provides robust additional evidence for a preferential interaction between ATF3 and ATF3W_aeg that is improved over either the core a or electrostatic e/g constructs.
Shown are thermal stabilities of peptide pairs measured via temperature dependence of the CD signal at 222 nm. The thermal denaturation profiles for (a) ATF3-ATF3W_a, (b) ATF3-ATF3W_eg, and (c) ATF3-ATF3W_aeg show a substantial increase in the transition midpoint (Tm = 59 °C) relative to component peptides (black vs red hash). Experiments were performed in 10 mM potassium phosphate and 100 mM potassium fluoride (pH 7.0). All spectra were recorded at 1 °C increments at a total peptide concentration of 150 μM and fitted to a two-state denaturation model.
Thermal denaturation experiments were performed at 150 μM total protein concentration in 10 mM potassium phosphate and 100 mM potassium fluoride, pH 7, using an Applied Photophysics Chirascan CD instrument (Leatherhead, UK) as previously described.[23]

[1] = Size-exclusion chromatography of peptide alone; assay type: physicochemical; details: Superdex Peptide 10/300 GL, RT; 20 μM total peptide
Procedure: During SEC experiments, monomeric ATF3 (Figure 8, blue line) and ATF3W_aeg (Figure 8, green line) eluted at approximately 20 min. These contrast with the dimeric profile observed for ATF3-ATF3W_aeg (Figure 8, black line), which occurred at approximately 19 min. For all samples, elution profiles were consistent with either a validated monomer or dimer elution pattern.[15]
Figure 8 SEC profiles indicate that ATF3W_aeg binds ATF3. Shown are size exclusion chromatography profiles for interacting peptides. The peak at approx 19 min for the ATF3-ATF3W_aeg mixture (black trace) represents a dimeric sample while ATF3 (blue trace) and ATF3W_aeg (green trace) generate a peak at approx 20 min, indicating the presence of a monomer. These experiments, undertaken at a total peptide concentration of 20 μM, provide additional evidence for selectivity of the ATF3-ATF3W_aeg interaction. Arrows show controls from previous peptides with elution times for a 32 mer Fos monomeric peptide (20 min) and a 37 mer cJun–FosW heterodimer (18.5 min).[15]
Size-exclusion experiments were performed at RT using a Superdex Peptide 10/300 GL column (GE Healthcare Life Sciences) as described previously.[23]

[2] = Peptide permeability assay (PAMPA); assay type: in vitro ADME
From the text: Fig S4: CD data for ATF3 interacting with ATF3W-a and ATF3W-eg.
Peptide permeability assay: The PAMPA assay measures permeability across an artificial membrane. This method provides an in vitro model for passive diffusion. Passive diffusion is an important factor in determining transport through the gastrointestinal tract, penetration of the blood brain barrier, as well as transport across cell membranes. Permeability can also be influenced by several other mechanisms including paracellular transport and active uptake or efflux which are not assessed in PAMPA. Therefore, PAMPA provides a simplistic approach to permeability by only measuring a single mechanism. […]
Peptide permeability assay: To evaluate the peptide permeability, the BD™ pre-coated PAMPA plate system was employed. […] The peptide concentrations in both plates were determined by UV spectroscopy after the assembly plate system were incubated at room temperature for 5 hours, and the peptide permeability and mass retention were calculated by using the PAMPA plate system formula which recommended in the manufacture manual. […]
Serum stability: The quantity of peptide detected by LC-MS is plotted relative to the starting point […]
Fig S5: Shown are serum stability of ATF3W-aeg. The quantity of peptide detected by LC-MS is plotted […]

## Ac-ELAALEQKAYALKQENAALEKEVAALEQKIAALK-NH2 (N-terminus and C-terminus assumed) [ATF3W_aeg]
ATF3
  transition midpoint (Tm) of heterodimer with ATF3: 60 °C
[1]
  SEC elution time, peptide alone: approximately 20 min
  oligomeric state in solution by SEC, peptide alone: exclusively as a monomer
[2]; BD pre-coated PAMPA plate system, 200uM peptide in PBS, room temperature, 5 hours, UV spectroscopy
  PAMPA mass retention: 5.8%
[2]; category by Log(Permeability) larger than -6, industry standard in BD PAMPA manual
  PAMPA permeability category: high permeability
